Data reported in patent US20250215012A1, “IKZF2 DEGRADERS AND USES THEREOF” (REGENTS OF THE UNIVERSITY OF MICHIGAN, priority 2022, published 2025).

Target: IKZF2 (Homo sapiens (Human), UniProt Q96SW2+Q9UKS7)
Test: IKZF2 HiBiT Assay (Jurkat-IKZF2-HiBiT cell line)
Type: cell-based
Settings: Jurkat-IKZF2-HiBiT cells, 24 hours; for DC50: read-out: HiBit assay degradation analysis DC50; for Dmax: read-out: HiBit assay degradation analysis Dmax
How it was run: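 Jurkat cells carrying HiBiT-tagged IKZF2 were exposed to serially diluted compound for 24 h at 37 °C. Remaining IKZF2 was measured by Nano-Glo HiBiT lytic luminescence after 10-20 min at room temperature. Signal was normalized to DMSO, and IC50 came from a four-parameter variable-slope fit.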

Chain of IKZF2 (Q9UKS7 whole entry): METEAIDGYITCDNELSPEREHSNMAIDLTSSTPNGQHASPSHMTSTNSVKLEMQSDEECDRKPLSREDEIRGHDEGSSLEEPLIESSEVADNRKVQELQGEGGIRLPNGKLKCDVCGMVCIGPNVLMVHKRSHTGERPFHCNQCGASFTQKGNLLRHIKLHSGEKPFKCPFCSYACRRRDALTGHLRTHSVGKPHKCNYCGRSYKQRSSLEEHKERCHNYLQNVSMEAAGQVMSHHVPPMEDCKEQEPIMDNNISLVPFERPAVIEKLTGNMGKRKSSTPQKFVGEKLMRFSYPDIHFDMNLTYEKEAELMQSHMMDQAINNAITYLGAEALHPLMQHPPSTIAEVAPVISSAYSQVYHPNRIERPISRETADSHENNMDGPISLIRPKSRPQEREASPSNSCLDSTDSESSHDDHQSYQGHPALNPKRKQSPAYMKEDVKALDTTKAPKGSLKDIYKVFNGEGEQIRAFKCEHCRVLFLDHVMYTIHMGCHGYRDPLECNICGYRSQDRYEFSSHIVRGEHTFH
Chain of IKZF2 (Q96SW2 whole entry): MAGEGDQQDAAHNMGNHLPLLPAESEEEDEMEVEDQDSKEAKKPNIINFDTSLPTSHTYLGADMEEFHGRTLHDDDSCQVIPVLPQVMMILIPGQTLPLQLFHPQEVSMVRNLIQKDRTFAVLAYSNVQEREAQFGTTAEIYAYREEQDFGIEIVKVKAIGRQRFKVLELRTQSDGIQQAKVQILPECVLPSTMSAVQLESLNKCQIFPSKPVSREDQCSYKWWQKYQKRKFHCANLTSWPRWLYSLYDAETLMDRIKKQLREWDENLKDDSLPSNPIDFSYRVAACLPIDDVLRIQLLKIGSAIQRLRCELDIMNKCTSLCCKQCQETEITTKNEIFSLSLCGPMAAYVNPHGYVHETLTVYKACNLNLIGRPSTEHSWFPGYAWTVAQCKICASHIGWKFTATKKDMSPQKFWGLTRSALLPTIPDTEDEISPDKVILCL
Chain of IKZF2 (Q16531 whole entry partner): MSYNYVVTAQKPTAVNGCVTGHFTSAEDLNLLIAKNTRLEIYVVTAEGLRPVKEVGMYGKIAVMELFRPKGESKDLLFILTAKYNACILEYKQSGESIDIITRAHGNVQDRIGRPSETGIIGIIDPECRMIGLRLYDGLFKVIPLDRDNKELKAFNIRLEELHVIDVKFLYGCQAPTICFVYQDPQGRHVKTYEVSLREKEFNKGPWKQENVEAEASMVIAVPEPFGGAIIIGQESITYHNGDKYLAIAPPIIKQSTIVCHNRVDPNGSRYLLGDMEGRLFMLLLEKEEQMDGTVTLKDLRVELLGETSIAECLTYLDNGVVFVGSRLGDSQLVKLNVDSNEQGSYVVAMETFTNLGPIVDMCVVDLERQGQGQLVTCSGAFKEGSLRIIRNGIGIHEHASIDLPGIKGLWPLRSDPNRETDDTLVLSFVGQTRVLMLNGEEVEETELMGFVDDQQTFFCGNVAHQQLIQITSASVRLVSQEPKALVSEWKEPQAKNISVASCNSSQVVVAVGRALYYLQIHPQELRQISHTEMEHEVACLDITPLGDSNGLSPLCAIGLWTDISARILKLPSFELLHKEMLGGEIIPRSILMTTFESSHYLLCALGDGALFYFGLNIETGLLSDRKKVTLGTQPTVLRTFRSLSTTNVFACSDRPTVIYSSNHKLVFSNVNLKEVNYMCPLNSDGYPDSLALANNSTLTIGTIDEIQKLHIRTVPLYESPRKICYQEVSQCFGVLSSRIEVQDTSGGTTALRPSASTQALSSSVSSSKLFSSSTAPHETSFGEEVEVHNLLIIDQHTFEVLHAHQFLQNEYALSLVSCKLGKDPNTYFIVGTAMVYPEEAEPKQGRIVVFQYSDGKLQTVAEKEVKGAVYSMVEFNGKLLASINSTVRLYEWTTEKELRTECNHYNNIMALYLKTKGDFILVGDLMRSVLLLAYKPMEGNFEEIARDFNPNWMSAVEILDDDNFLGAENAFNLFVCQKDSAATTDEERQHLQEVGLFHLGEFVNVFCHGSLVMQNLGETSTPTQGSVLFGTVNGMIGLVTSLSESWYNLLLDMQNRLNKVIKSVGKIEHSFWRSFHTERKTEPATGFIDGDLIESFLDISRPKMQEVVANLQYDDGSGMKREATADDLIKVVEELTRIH

Row | SMILES | DC50 | Dmax
1 | O=C1CCC(N2Cc3c(ccc4c3OCC43CCN(Cc4ccsc4)CC3)C2=O)C(=O)N1 (stereo not drawn) [Compound A183, 3-(6-oxo-1′-(thiophen-3-ylmethyl)-6,8-dihydro-2H,7H-spiro[furo[2,3-e]isoindole-3,4′-piperidin]-7-yl)piperidine-2,6-dione] | 200 to 500 nM | 40 to 60%
2 | O=C1CCC(N2Cc3c(ccc4c3OCC43CCN(Cc4ccc(OCc5ccccc5)nc4)CC3)C2=O)C(=O)N1 (stereo not drawn) [Compound A339, 3-(1′-((6-(benzyloxy)pyridin-3-yl)methyl)-6-oxo-6,8-dihydro-2H,7H-spiro[furo[2,3-e]isoindole-3,4′-piperidin]-7-yl)piperidine-2,6-dione] | > 500 nM | 40 to 60%
3 | COc1ncc(CN2CCC3(CC2)COc2c3ccc3c2CN(C2CCC(=O)NC2=O)C3=O)cn1 (stereo not drawn) [Compound A26, 3-(1′-((2-methoxypyrimidin-5-yl)methyl)-6-oxo-6,8-dihydro-2H,7H-spiro[furo[2,3-e]isoindole-3,4′-piperidin]-7-yl)piperidine-2,6-dione] | > 500 nM | < 40%
4 | Cc1cc2c(CN3CCC4(CC3)COc3c4ccc4c3CN(C3CCC(=O)NC3=O)C4=O)cccc2[nH]1 (stereo not drawn) [Compound A121, 3-(1′-((2-methyl-1H-indol-4-yl)methyl)-6-oxo-6,8-dihydro-2H,7H-spiro[furo[2,3-e]isoindole-3,4′-piperidin]-7-yl)piperidine-2,6-dione] | < 50 nM | 60 to 80%
5 | Cn1cc(-c2cccc(CN3CCC4(CC3)OCc3c4ccc4c3CN(C3CCC(=O)NC3=O)C4=O)c2)cn1 (stereo not drawn) [Compound A259, 3-(1′-(3-(1-methyl-1H-pyrazol-4-yl)benzyl)-6-oxo-6,8-dihydrospiro[furo[3,4-e]isoindoline-3,4′-piperidin]-7(1H)-yl)piperidine-2,6-dione] | > 500 nM | 40 to 60%
6 | O=C1CC[C@H](N2Cc3c(ccc4c3OCC43CCN(Cc4cccc(-c5cnn(C[C@H]6CCO6)c5)c4)CC3)C2=O)C(=O)N1 [Compound A273, (S)-3-(1′-(3-(1-(((R)-oxetan-2-yl)methyl)-1H-pyrazol-4-yl)benzyl)-6-oxo-6,8-dihydro-2H,7H-spiro[furo[2,3-e]isoindole-3,4′-piperidin]-7-yl)piperidine-2,6-dione] | 50 to 200 nM | 60 to 80%
7 | O=C1CC[C@H](N2Cc3c(ccc4c3OCC43CCN(CC4CCCN(C(=O)c5ccccc5)C4)CC3)C2=O)C(=O)N1 (stereo partly drawn) [Compound A305, (3S)-3-(1′-((1-benzoylpiperidin-3-yl)methyl)-6-oxo-6,8-dihydro-2H,7H-spiro[furo[2,3-e]isoindole-3,4′-piperidin]-7-yl)piperidine-2,6-dione] | > 500 nM | 40 to 60%
8 | Cn1ccc2c(CN3CCC4(CC3)COc3c4ccc4c3CN(C3CCC(=O)NC3=O)C4=O)cccc21 (stereo not drawn) [Compound A109, 3-(1′-((1-methyl-1H-indol-4-yl)methyl)-6-oxo-6,8-dihydro-2H,7H-spiro[furo[2,3-e]isoindole-3,4′-piperidin]-7-yl)piperidine-2,6-dione] | < 50 nM | 60 to 80%
9 | Cc1nnc(-c2cccc(CN3CCC4(CC3)COc3c4ccc4c3CN(C3CCC(=O)NC3=O)C4=O)c2)o1 (stereo not drawn) [Compound A151, 3-(1′-(3-(5-methyl-1,3,4-oxadiazol-2-yl)benzyl)-6-oxo-6,8-dihydro-2H,7H-spiro[furo[2,3-e]isoindole-3,4′-piperidin]-7-yl)piperidine-2,6-dione] | 200 to 500 nM | 40 to 60%
10 | O=C1CCC(N2Cc3c(ccc4c3OCC43CCN(Cc4cccc5sccc45)CC3)C2=O)C(=O)N1 (stereo not drawn) [Compound A186, 3-(1′-(benzo[b]thiophen-4-ylmethyl)-6-oxo-6,8-dihydro-2H,7H-spiro[furo[2,3-e]isoindole-3,4′-piperidin]-7-yl)piperidine-2,6-dione] | < 50 nM | > 80%
11 | O=C1CCC(N2Cc3c(ccc4c3OCC43CCN(Cc4cccc5ccncc45)CC3)C2=O)C(=O)N1 (stereo not drawn) [Compound A40, 3-(1′-(isoquinolin-8-ylmethyl)-6-oxo-6,8-dihydro-2H,7H-spiro[furo[2,3-e]isoindole-3,4′-piperidin]-7-yl)piperidine-2,6-dione] | 50 to 200 nM | 60 to 80%
12 | O=C1CC[C@H](N2Cc3c(ccc4c3OCC43CCN(Cc4ccc5c(c4)C(=O)NC5)CC3)C2=O)C(=O)N1 [Compound A171, (S)-3-(6-oxo-1′-((3-oxoisoindolin-5-yl)methyl)-6,8-dihydro-2H,7H-spiro[furo[2,3-e]isoindole-3,4′-piperidin]-7-yl)piperidine-2,6-dione] | 50 to 200 nM | 60 to 80%
13 | COc1ccc(CN2CCC3(CC2)COc2c3ccc3c2CN(C2CCC(=O)NC2=O)C3=O)cc1 (stereo not drawn) [Compound A211, 3-(1′-(4-methoxybenzyl)-6-oxo-6,8-dihydro-2H,7H-spiro[furo[2,3-e]isoindole-3,4′-piperidin]-7-yl)piperidine-2,6-dione] | > 500 nM | < 40%
14 | O=C1CCC(N2Cc3c(ccc4c3OCC43CCN(Cc4cccc(-c5ncon5)c4)CC3)C2=O)C(=O)N1 (stereo not drawn) [Compound A150, 3-(1′-(3-(1,2,4-oxadiazol-3-yl)benzyl)-6-oxo-6,8-dihydro-2H,7H-spiro[furo[2,3-e]isoindole-3,4′-piperidin]-7-yl)piperidine-2,6-dione] | 50 to 200 nM | 60 to 80%
15 | O=C1CCC(N2Cc3c(ccc4c3OCC43CCN(Cc4cnn(S(=O)(=O)c5ccc(F)c(F)c5)c4)CC3)C2=O)C(=O)N1 [Compound A353, (S)-3-(1′-((1-((3,4-difluorophenyl)sulfonyl)-1H-pyrazol-4-yl)methyl)-6-oxo-6,8-dihydro-2H,7H-spiro[furo[2,3-e]isoindole-3,4′-piperidin]-7-yl)piperidine-2,6-dione] | > 500 nM | 
16 | O=C1CCC(N2Cc3c(ccc4c3OCC43CCN(Cc4ccc5nn(CCO)cc5c4)CC3)C2=O)C(=O)N1 (stereo not drawn) [Compound A345, 3-(1′-((2-(2-hydroxyethyl)-2H-indazol-5-yl)methyl)-6-oxo-6,8-dihydro-2H,7H-spiro [furo[2,3-e]isoindole-3,4′-piperidin]-7-yl)piperidine-2,6-dione] | > 500 nM | < 40%
17 | Cn1cc(CN2CCC3(CC2)COc2c3ccc3c2CN(C2CCC(=O)NC2=O)C3=O)c(-c2ccccc2)n1 (stereo not drawn) [Compound A256, 3-(1′-((1-methyl-3-phenyl-1H-pyrazol-4-yl)methyl)-6-oxo-6,8-dihydro-2H,7H-spiro[furo[2,3-e]isoindole-3,4′-piperidin]-7-yl)piperidine-2,6-dione] | > 500 nM | < 40%
18 | O=C1CCC(N2Cc3c(ccc4c3OCC43CCN(Cc4cccc5ccsc45)CC3)C2=O)C(=O)N1 (stereo not drawn) [Compound A189, 3-(1′-(benzo[b]thiophen-7-ylmethyl)-6-oxo-6,8-dihydro-2H,7H-spiro[furo[2,3-e]isoindole-3,4′-piperidin]-7-yl)piperidine-2,6-dione] | 50 to 200 nM | 60 to 80%
19 | O=C1CC[C@H](N2Cc3c(ccc4c3OCC43CCN(Cc4ccc5c(c4)NC(=O)CC5)CC3)C2=O)C(=O)N1 [Compound A303, 3-(6-oxo-1′-((2-oxo-1,2,3,4-tetrahydroquinolin-7-yl)methyl)-6,8-dihydro-2H,7H-spiro[furo[2,3-e]isoindole-3,4′-piperidin]-7-yl)piperidine-2,6-dione] | 200 to 500 nM | 60 to 80%
20 | O=C1CCC(N2Cc3c(ccc4c3OCC43CCN(Cc4cccc5c4OCC5)CC3)C2=O)C(=O)N1 (stereo not drawn) [Compound A224, 3-(1′-((2,3-dihydrobenzofuran-7-yl)methyl)-6-oxo-6,8-dihydro-2H,7H-spiro[furo[2,3-e]isoindole-3,4′-piperidin]-7-yl)piperidine-2,6-dione] | 200 to 500 nM | 40 to 60%
21 | Cn1cc(-c2ccc(CN3CCC4(CC3)COc3c4ccc4c3CN(C3CCC(=O)NC3=O)C4=O)cc2)cn1 (stereo not drawn) [Compound A148, 3-(1′-(4-(1-methyl-1H-pyrazol-4-yl)benzyl)-6-oxo-6,8-dihydro-2H,7H-spiro[furo[2,3-e]isoindole-3,4′-piperidin]-7-yl)piperidine-2,6-dione] | < 50 nM | 60 to 80%
22 | O=C1CCC(N2Cc3c(ccc4c3OCC43CCN(CC4CCN(c5ccccc5)CC4)CC3)C2=O)C(=O)N1 (stereo not drawn) [Compound A123, 3-(6-oxo-1′-((1-phenylpiperidin-4-yl)methyl)-6,8-dihydro-2H,7H-spiro[furo[2,3-e]isoindole-3,4′-piperidin]-7-yl)piperidine-2,6-dione] | > 500 nM | 40 to 60%
23 | O=C1CC[C@H](N2Cc3c(ccc4c3OCC43CCN(Cc4cccc(-c5cnn(C[C@@H]6COCCO6)c5)c4)CC3)C2=O)C(=O)N1 [Compound A272, (S)-3-(1′-(3-(1-(((R)-1,4-dioxan-2-yl)methyl)-1H-pyrazol-4-yl)benzyl)-6-oxo-6,8-dihydro-2H,7H-spiro[furo[2,3-e]isoindole-3,4′-piperidin]-7-yl)piperidine-2,6-dione] | 50 to 200 nM | 60 to 80%
24 | O=C1CCC(N2Cc3c(ccc4c3OCC43CCN(Cc4cccc(OC(F)F)c4)CC3)C2=O)C(=O)N1 (stereo not drawn) [Compound A90, 3-(1′-(3-(difluoromethoxy)benzyl)-6-oxo-6,8-dihydro-2H,7H-spiro[furo[2,3-e]isoindole-3,4′-piperidin]-7-yl)piperidine-2,6-dione] | > 500 nM | < 40%
25 | O=C1CC[C@H](N2Cc3c(ccc4c3OCC43CCN(Cc4cnn(-c5ccc(C(F)(F)F)cc5)c4)CC3)C2=O)C(=O)N1 [Compound A360, (S)-3-(6-oxo-1′-((1-(4-(trifluoromethyl)phenyl)-1H-pyrazol-4-yl)methyl)-6,8-dihydro-2H,7H-spiro[furo[2,3-e]isoindole-3,4′-piperidin]-7-yl)piperidine-2,6-dione] | < 50 nM | 60 to 80%
26 | O=C1CCC(N2Cc3c(ccc4c3OCC43CCN(C[C@H]4C[C@H](Oc5ccc(F)cc5)C4)CC3)C2=O)C(=O)N1 (stereo partly drawn) [Compound A351, 3-(1′-(((1r,3r)-3-(4-fluorophenoxy)cyclobutyl)methyl)-6-oxo-6,8-dihydro-2H,7H-spiro[furo[2,3-e]isoindole-3,4′-piperidin]-7-yl)piperidine-2,6-dione] | > 500 nM | 40 to 60%
